Assay results as given in patent US11883383B2, “Pharmaceutically acceptable salts of [3-(4- {2-butyl-1-[4-(4-chloro-phenoxy)-phenyl]-1H-imidazol-4-yl} -phenoxy)-propyl]-diethyl-amine” (vTv Therapeutics LLC, priority 2018, dated 2024).
Where two headings read alike, the source gives them in different places.

Key:
Assay type in all cases: physicochemical
[1] = Thermogravimetric analysis (TGA) weight loss of crystalline hits; details: for Speculated Form: based on TGA/DSC characterization data
Protocol: (§1) TGA data were collected using a TA Q500 and Q550 from TA Instruments. DSC was performed using a TA Q2000 from TA Instruments. DSC was calibrated with Indium reference standard and the TGA was calibrated using nickel reference standard.
(§2) All hits were further characterized by TGA and DSC, with the stoichiometry determined by ^1H NMR or HPLC/IC. Based on the characterization data in Table 2 below, most of them were considered to be anhydrates.

[2] = Differential scanning calorimetry (DSC) endotherms of crystalline hits; details: onset temperature
Protocol: as §1, §2

[3] = Stoichiometry (acid/freebase) by 1H NMR or HPLC/IC
Source text: Solution NMR was collected on Bruker 500M NMR Spectrometer using DMSO-d6 and CD3OD as solvents.
Agilent 1100 HPLC was utilized to analyze the purity and stoichiometry, with detailed method listed in below.
IC method for counter-ion content measurement is listed below.
as §2

[4] = Salt/co-crystal screening: 38 acids, eight solvent systems, solids analysed by XRPD; details: acid/freebase charge 1:1 unless label says 2:1, stirred at RT, else 5° C. slurry, anti-solvent addition or evaporation (footnote marks)
Protocol: XRPD analysis was performed with a Panalytical X'Pert^3 Powder XRPD on a Si zero-background holder. The 2θ position was calibrated against Panalytical Si reference standard disc.
A total of 320 salt/co-crystal screening experiments were conducted using 38 acids (two molar ratios for HCl and HBr) and eight solvent systems. Specifically, freebase stock solutions of ˜100 mg/mL were first prepared in each solvent system. For each experiment, 0.2 mL stock solution and the corresponding acids were mixed in a molar charge ratio of 1:1 (acid/freebase, 2:1 for HCl/freebase and HBr/freebase as well), and then stirred at RT. After stirring for 3-5 days, if precipitation was observed, the precipitate was isolated. It no precipitation, the clear solutions were first transferred to slurry at 5° C. to introduce precipitation. Solutions without any precipitation were further subjected to anti-solvent addition (for solvents in column B/D, 0.5 mL hexane was added; for solvents in column G/H, 0.5 mL water was added; for solvent in column F, 0.5 mL n-heptane was added). If still no precipitation, the final clear solutions were transferred to evaporation at RT to induce precipitation. All solids isolated were vacuum dried at RT for 2 hrs before XRPD analysis.

Solid obtained in salt screening (XRPD), solvent D Acetone/Hexane (1:2, v/v) [4]	Solid obtained in salt screening (XRPD), solvent H Dioxane/H2O (9:1, v/v) [4]	Solid obtained in salt screening (XRPD), solvent A Ethanol [4]	Solid obtained in salt screening (XRPD), solvent B Ethyl acetate/Hexane (1:2, v/v) [4]	Solid obtained in salt screening (XRPD), solvent G Methanol/H2O (19:1, v/v) [4]	Solid obtained in salt screening (XRPD), solvent F Methyl tertbutyl ether [4]	Solid obtained in salt screening (XRPD), solvent C THF [4]	Solid obtained in salt screening (XRPD), solvent E Toluene [4]	Compound	TGA Wt. Loss (%) [1]	Speculated Form [1]	DSC Endo. (onset, ° C.) [2] [°C]	Stoichiometry (acid/base) [3]	TGA Wt. Loss (%) ([1]; up to 120° C.)
								CCCCc1nc(-c2ccc(OCCCN(CC)CC)cc2)cn1-c1ccc(Oc2ccc(Cl)cc2)cc1.O=C(O)c1cc(O)ccc1O [Gentisate Type B]	negligible	Anhydrate	122.9	1.03	
								CCCCc1nc(-c2ccc(OCCCN(CC)CC)cc2)cn1-c1ccc(Oc2ccc(Cl)cc2)cc1.O=C1NS(=O)(=O)c2ccccc21 [Saccharinate Type A]	negligible	Anhydrate	120.0	1.22	
								CCCCc1nc(-c2ccc(OCCCN(CC)CC)cc2)cn1-c1ccc(Oc2ccc(Cl)cc2)cc1.O=C(O)/C=C/C(=O)O [Fumarate Type A]	negligible	Anhydrate	115.0	1.00	
								CCCCc1nc(-c2ccc(OCCCN(CC)CC)cc2)cn1-c1ccc(Oc2ccc(Cl)cc2)cc1.COc1cc(C(=O)O)ccc1O [Vanillate Type A]	negligible	Anhydrate	99.6	1.04	
								CCCCc1nc(-c2ccc(OCCCN(CC)CC)cc2)cn1-c1ccc(Oc2ccc(Cl)cc2)cc1.O=C(O)/C=C\C(=O)O [Maleate Type A]	negligible	Anhydrate	120.2	0.97	
								CCCCc1nc(-c2ccc(OCCCN(CC)CC)cc2)cn1-c1ccc(Oc2ccc(Cl)cc2)cc1.O=C(O)c1cc(O)ccc1O [Gentisate Type A]		Hydrate		1.01	1.8 up to %
gel	gel*	gel*	gel	gel*		gel	amorphous*	O=S(=O)(O)O [H2SO4]					
	amorphous*	gel*		amorphous*	amorphous	amorphous^#	amorphous	O=C(O)CC(O)(CC(=O)O)C(=O)O [Citric acid]					
FB Type B*	amorphous*	gel*	amorphous*	amorphous*	amorphous*	gel*	gel*	O=C(O)CCCCC(=O)O [Adipic acid]					
				gel*				O=C(O)C(=O)O [Oxalic acid]					
				amorphous*				O=C(O)C(O)C(O)C(=O)O [L-tartartic acid]					
amorphous*	amorphous*	gel*	amorphous*	amorphous*	gel*	gel*	gel*	O=C(O)CC(=O)O [Malonic acid]					
gel	amorphous*	amorphous*		amorphous*		gel	gel	O=C(O)C[C@H](O)C(=O)O [L-malic acid]					
gel	amorphous*	amorphous*	gel*	amorphous*	gel	gel	gel	O=C(O)c1ccc2ccccc2c1O [1-hydroxy-2-naphthoic acid]					
gel	amorphous*	amorphous	gel	amorphous*	amorphous*	gel	gel	O=C(O)/C=C/c1ccccc1 [trans Cinnamic acid]					
								Br.CCCCc1nc(-c2ccc(OCCCN(CC)CC)cc2)cn1-c1ccc(Oc2ccc(Cl)cc2)cc1 [HBr salt Type B]	negligible	Anhydrate		2.07	
	amorphous*	amorphous		amorphous*		gel	gel	COc1cc(C(=O)O)ccc1O [Vanillic acid]					
	amorphous*	gel*		amorphous*		gel*		O=C(O)/C=C/C(=O)O [Fumaric acid]					

Compound	Solid obtained in salt screening (XRPD), solvent D Acetone/Hexane (1:2, v/v) [4]	Solid obtained in salt screening (XRPD), solvent H Dioxane/H2O (9:1, v/v) [4]	Solid obtained in salt screening (XRPD), solvent A Ethanol [4]	Solid obtained in salt screening (XRPD), solvent B Ethyl acetate/Hexane (1:2, v/v) [4]	Solid obtained in salt screening (XRPD), solvent G Methanol/H2O (19:1, v/v) [4]	Solid obtained in salt screening (XRPD), solvent F Methyl tertbutyl ether [4]	Solid obtained in salt screening (XRPD), solvent C THF [4]	Solid obtained in salt screening (XRPD), solvent E Toluene [4]	TGA Wt. Loss (%) [1]	Speculated Form [1]	DSC Endo. (onset, ° C.) [2] [°C]	Stoichiometry (acid/base) [3]	TGA Wt. Loss (%) ([1]; up to 120° C.)
O=C(O)CCCC(=O)O [Glutaric acid]	amorphous*	amorphous*	gel*	amorphous*	amorphous*	amorphous^&	gel*	gel*					
O=C(O)c1cc(O)ccc1O [Gentisic acid]			gel*				gel*						
O=C(O)c1ccccc1O [Salicyclic acid]	amorphous*	amorphous*	gel*	amorphous*	amorphous*	amorphous^&	gel*	gel*					
